We go through 39 compounds from patent US12685312B2, “Sulfonamide apyrase inhibitors” (Texas Crop Science, Inc., priority 2022, dated 2026).

Molecules are shown by their SMILES.

The subject of the experiment is apyrase. Kind of experiment: Screen for apyrase inhibitors (Method 1, in vitro phosphate-release absorbance assay). The format is biochemical. The conditions noted are these: inhibitor conc at 1 mM stock, 1 hr room temperature, absorbance 630 nm; rounded average of two assay results. In a few lines: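 Phosphate-release colorimetric assay (Windsor method) in 60 mM Hepes, 3 mM MgCl2, 3 mM CaCl2, 3 mM ATP, pH 6.5, with compound or DMSO control added. Released phosphate developed with ammonium molybdate and ascorbic acid/TCA, then stopped with citrate/acetic acid.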
`O=C(Nc1ccc(OC(F)(F)F)cc1)c1cccc(S(=O)(=O)Nc2ccc3c(c2)OCO3)c1` [I-200, 3-(N-(benzo[d][1,3]dioxol-5-yl)sulfamoyl)-N-(4-(trifluoromethoxy)phenyl)benzamide]: the “% Inhibition of Apyrase” value is listed as 78%. Next, `COc1ccc(NS(=O)(=O)c2ccc(NC(=O)c3ccc(F)cc3)cc2)cc1` [I-1002, 4-fluoro-N-(4-(N-(4-methoxyphenyl)sulfamoyl)phenyl)benzamide]: 3%; `O=C(Nc1nc2ccccc2[nH]1)c1cccc(NS(=O)(=O)c2ccc3c(c2)OCCCO3)c1` [I-635, N-(1H-benzo[d]imidazol-2-yl)-3-((3,4-dihydro-2H-benzo[b][1,4]dioxepine)-7-sulfonamido)benzamide]: 58%.

As to `COc1ccc(NC(=O)c2ccc(S(=O)(=O)Nc3ccccc3)cc2)cc1` [I-402, N-(4-methoxyphenyl)-4-(N-phenylsulfamoyl)benzamide], the “% Inhibition of Apyrase” value worked out at 40%. Then `O=C(Nc1ccc(S(=O)(=O)Nc2ccc(F)c(Cl)c2)cc1)c1cccc([N+](=O)[O-])c1` [I-972, N-(4-(N-(3-chloro-4-fluorophenyl)sulfamoyl)phenyl)-3-nitrobenzamide], with 66%; and `COc1ccc(NS(=O)(=O)c2cccc(NC(=O)c3cc4c(s3)CCC4)c2)cc1` [I-742, N-(3-(N-(4-methoxyphenyl)sulfamoyl)phenyl)-5,6-dihydro-4H-cyclopenta[b]thiophene-2-carboxamide], with 50%. Next, `O=C(O)CCc1ccc(S(=O)(=O)Nc2cccc(C(=O)Nc3cccc(C(F)(F)F)c3)c2)cc1` [I-324, 3-(4-(N-(3-((3-(trifluoromethyl)phenyl)carbamoyl)phenyl)sulfamoyl)phenyl)propanoic acid]: 41%. Then `COc1ccccc1NC(=O)c1ccc(S(=O)(=O)N(C)c2ccccc2OC)cc1` [I-880, N-(2-methoxyphenyl)-4-(N-(2-methoxyphenyl)-N-methylsulfamoyl)benzamide], with 53%; and `O=C(Nc1ccc(S(=O)(=O)NC2CC2)cc1)c1cccc(S(=O)(=O)N2CCc3ccccc32)c1` [I-478, N-(4-(N-cyclopropylsulfamoyl)phenyl)-3-(indolin-1-ylsulfonyl)benzamide], with 58%; and `O=C(Nc1ccc(N2CCOCC2)cc1)c1cccc(S(=O)(=O)Nc2ccc3c(c2)OCO3)c1` [I-283, 3-(N-(benzo[d][1,3]dioxol-5-yl)sulfamoyl)-N-(4-morpholinophenyl)benzamide], with 29%. In the case of `COc1ccc(NC(=O)c2cccc(S(=O)(=O)Nc3ccc4c(c3)OCO4)c2)c(OC)c1` [I-590, 3-(N-(benzo[d][1,3]dioxol-5-yl)sulfamoyl)-N-(2,4-dimethoxyphenyl)benzamide], the “% Inhibition of Apyrase” value worked out at 42%.

With `Cc1csc(NC(=O)c2cccc(NS(=O)(=O)c3ccccc3)c2)n1` [I-667, N-(4-methylthiazol-2-yl)-3-(phenylsulfonamido)benzamide], the “% Inhibition of Apyrase” value stood at 12%. Then `O=C(Nc1cccc2cccnc12)c1cccc(S(=O)(=O)N2CCc3ccccc32)c1` [I-444, 3-(indolin-1-ylsulfonyl)-N-(quinolin-8-yl)benzamide], with 61%; and `O=C(CNC(=O)c1ccccc1F)Nc1cccc(S(=O)(=O)Nc2ccc(Br)cc2)c1` [I-205, N-(2-((3-(N-(4-bromophenyl)sulfamoyl)phenyl)amino)-2-oxoethyl)-2-fluorobenzamide], with 74%. For the compound `O=C(Nc1cccc(Cl)c1)c1ccc(NS(=O)(=O)c2ccc(F)c(F)c2)cc1` [I-906, N-(3-chlorophenyl)-4-((3,4-difluorophenyl)sulfonamido)benzamide], the “% Inhibition of Apyrase” value amounted to 61%. As for `Cc1ccccc1NS(=O)(=O)c1ccc(C(=O)N2c3ccccc3CC2C)cc1` (stereo not drawn) [I-879, 4-(2-methylindoline-1-carbonyl)-N-(o-tolyl)benzenesulfonamide], the “% Inhibition of Apyrase” value is given as 53%. As to `COc1ccc(NC(=O)c2cccc(S(=O)(=O)N(C)c3ccc(OC)cc3)c2)cc1` [I-514, N-(4-methoxyphenyl)-3-(N-(4-methoxyphenyl)-N-methylsulfamoyl)benzamide], the “% Inhibition of Apyrase” value is recorded as 56%. Then `O=C(Nc1nccs1)c1cccc(NS(=O)(=O)c2ccc3c(c2)OCCCO3)c1` [I-644, 3-((3,4-dihydro-2H-benzo[b][1,4]dioxepine)-7-sulfonamido)-N-(thiazol-2-yl)benzamide], with 54%; and `O=C(Nc1cccc(S(=O)(=O)N2CCCC2)c1)c1ccccc1NS(=O)(=O)c1cccc(C(F)(F)F)c1` [I-180, N-(3-(pyrrolidin-1-ylsulfonyl)phenyl)-2-((3-(trifluoromethyl)phenyl)sulfonamido) benzamide], with 75%; and `O=C(c1cccc(S(=O)(=O)N2CCc3ccccc32)c1)N1CCCc2ccccc21` [I-498, (3,4-dihydroquinolin-1(2H)-yl)(3-(indolin-1-ylsulfonyl)phenyl)methanone], with 57%.

For `O=C(Nc1ccc(F)cc1)c1ccccc1NS(=O)(=O)c1cccc(C(F)(F)F)c1` [I-374, N-(4-fluorophenyl)-2-((3-(trifluoromethyl)phenyl)sulfonamido) benzamide], the “% Inhibition of Apyrase” value is 48%.

On to `O=C(Nc1ccc(OC(F)F)cc1)c1ccccc1S(=O)(=O)Nc1cccc(C(F)(F)F)c1` [I-224, N-(4-(difluoromethoxy)phenyl)-2-(N-(3-(trifluoromethyl)phenyl)sulfamoyl)benzamide], for which the “% Inhibition of Apyrase” value is given as 67%. With `CCc1ccccc1NC(=O)c1cccc(S(=O)(=O)N2c3ccccc3CC2C)c1` (stereo not drawn) [I-445, N-(2-ethylphenyl)-3-((2-methylindolin-1-yl)sulfonyl)benzamide], the “% Inhibition of Apyrase” value is 61%. As to `Cc1csc(NC(=O)c2cccc(NS(=O)(=O)c3ccc4c(c3)OCCCO4)c2)n1` [I-650, 3-((3,4-dihydro-2H-benzo[b][1,4]dioxepine)-7-sulfonamido)-N-(4-methylthiazol-2-yl)benzamide], the “% Inhibition of Apyrase” value is recorded as 50%.

On to `O=C(Nc1cccc(S(=O)(=O)Nc2ccccc2Cl)c1)c1ccc([N+](=O)[O-])s1` [I-730, N-(3-(N-(2-chlorophenyl)sulfamoyl)phenyl)-5-nitrothiophene-2-carboxamide], for which the “% Inhibition of Apyrase” value was determined as 55%. Then `O=C(c1cccc(S(=O)(=O)Nc2cccc(C(F)(F)F)c2)c1)N1CCc2ccccc21` [I-475, 3-(indoline-1-carbonyl)-N-(3-(trifluoromethyl)phenyl)benzenesulfonamide], with 59%. Turning to `O=C(Nc1ccc(S(=O)(=O)Nc2cccc(C(F)(F)F)c2)cc1)c1cccc(F)c1` [I-998, 3-fluoro-N-(4-(N-(3-(trifluoromethyl)phenyl)sulfamoyl)phenyl) benzamide], the “% Inhibition of Apyrase” value is 34%. Next, `O=C(Nc1ccc2c(c1)OCCCO2)c1ccc(S(=O)(=O)Nc2ccc(F)cc2)cc1` [I-415, N-(3,4-dihydro-2H-benzo[b][1,4]dioxepin-7-yl)-4-(N-(4-fluorophenyl)sulfamoyl)benzamide]: 13%; `Cc1ccc(S(=O)(=O)N(C)c2ccc(C(=O)Nc3cc([N+](=O)[O-])ccc3C)cc2)cc1` [I-925, 4-((N,4-dimethylphenyl)sulfonamido)-N-(2-methyl-5-nitrophenyl)benzamide]: 56%. Then `COc1cccc(C(=O)Nc2ccc(S(=O)(=O)Nc3ccccc3OC)cc2)c1` [I-973, 3-methoxy-N-(4-(N-(2-methoxyphenyl)sulfamoyl)phenyl)benzamide], with 63%; and `Cc1ccc(NC(=O)c2cccc(S(=O)(=O)Nc3ccc4c(c3)OCO4)c2)cc1C` [I-230, 3-(N-(benzo[d][1,3]dioxol-5-yl)sulfamoyl)-N-(3,4-dimethylphenyl)benzamide], with 66%; and `COc1ccc(NC(=O)c2ccc(S(=O)(=O)Nc3cccc(C(F)(F)F)c3)cc2)c(OC)c1` [I-399, N-(2,4-dimethoxyphenyl)-4-(N-(3-(trifluoromethyl)phenyl)sulfamoyl)benzamide], with 43%. Next, `Cc1ccccc1NS(=O)(=O)c1ccc(C(=O)Nc2ccc(Cl)cc2)cc1` [I-411, N-(4-chlorophenyl)-4-(N-(o-tolyl)sulfamoyl)benzamide]: 21%; `Cc1nc2cc(NC(=O)c3cccc(NS(=O)(=O)c4cccs4)c3)ccc2o1` [I-664, N-(2-methylbenzo[d]oxazol-5-yl)-3-(thiophene-2-sulfonamido)benzamide]: 24%; `COc1ccc(S(=O)(=O)N2CCc3ccccc32)cc1C(=O)Nc1ccc2c(c1)OCO2` [I-511, N-(benzo[d][1,3]dioxol-5-yl)-5-(indolin-1-ylsulfonyl)-2-methoxybenzamide]: 56%. As for `O=C(Nc1cccc(NS(=O)(=O)c2ccc(Cl)cc2)c1)c1ccc2[nH]nnc2c1` [I-340, N-(3-((4-chlorophenyl)sulfonamido)phenyl)-1H-benzo[d][1,2,3]triazole-5-carboxamide], the “% Inhibition of Apyrase” value is given as 65%. Then `O=C(Nc1ccc2c(c1)OCCO2)c1ccc(C(=O)Nc2ccc3c(c2)OCCO3)cc1` [I-875, N1,N4-bis(2,3-dihydrobenzo[b][1,4]dioxin-6-yl)terephthalamide], with 55%; and `CC(C)n1ncc2cc(NC(=O)c3cccc(S(=O)(=O)Nc4ccc5c(c4)OCO5)c3)cnc21` [I-553, 3-(N-(benzo[d][1,3]dioxol-5-yl)sulfamoyl)-N-(1-isopropyl-1H-pyrazolo[3,4-b]pyridin-5-yl)benzamide], with 52%. Next, `Cc1cc(C)cc(NC(=O)c2ccc(NS(=O)(=O)c3ccc(F)c(Cl)c3)cc2)c1` [I-931, 4-((3-chloro-4-fluorophenyl)sulfonamido)-N-(3,5-dimethylphenyl)benzamide]: 55%.
